According to patent US10766909B2, “Process for preparing halogenated pyridine derivatives” (Bayer CropScience Aktiengesellschaft, priority 2016, dated 2020):

Test: log P by HPLC-MS
Assay type: physicochemical

| SMILES | chromatographic logP |
| --- | --- |
| Fc1ccc(Cl)nc1I [Example 1, 6-chloro-3-fluoro-2-iodopyridine] | 2.53 |
| COC(=O)c1ccc(F)c(I)n1 [Example 2, methyl 5-fluoro-6-iodopyridine-2-carboxylate] | 1.85 |
| Fc1ccc(Br)nc1I [Example 3, 6-bromo-3-fluoro-2-iodopyridine] | 2.67 |
